Test results published in ChEMBL document CHEMBL5500384, “New synergistic benzoquinone scaffolds as inhibitors of mycobacterial cytochrome bc1 complex to treat multi-drug resistant tuberculosis” (Eur J Med Chem, 2024).

Key:
[1] = Acute toxicity in po dosed Albino mouse assessed as mortality after 14 days; format: organism-based; details: in vivo, time 14 day
[2] = Cytotoxicity against african green monkey Vero cells by MTT assay; format: toxicity, cell-based; details: chlorocebus sabaeus
[3] = Acute toxicity in Albino mouse assessed as mortality at 300 mg/kg, po after 5 to 8 hrs; format: organism-based; details: in vivo, time 5-8 hrs
[4] = Acute toxicity in Albino mouse assessed as mortality at 50 mg/kg, po after 14 days; format: organism-based; details: in vivo, 336 h, time 14 day
[5] = system: Mycobacterium tuberculosis; experiment: Antitubercular activity against Mycobacterium tuberculosis H37Rv assessed as effect on nucleoid morphology at 12.5 ug/ml by fluorescence microscopy analysis; format: functional; details: dose 12.5 µg/ml
[6] = Acute toxicity in Albino mouse assessed as mortality at 300 mg/kg, po after 14 days; format: organism-based; details: in vivo, 336 h, time 14 day
[7] = system: Mycobacterium tuberculosis; experiment: Antitubercular activity against Mycobacterium tuberculosis H37Rv assessed as effect on nucleoid morphology at 6.25 ug/ml by fluorescence microscopy analysis; format: functional; details: dose 6.25 µg/ml

Compound	LD50 at 336 h [1]	Activity [2]	Activity [3]	Activity [4]	Activity [5]	Activity [6]	Activity [7]
COc1ccc(C2C(Cl)C(=O)N2C2=C(Cl)C(=O)c3ccccc3C2=O)cc1 (centres undefined)	50 mg/kg	Dose-Dependent Effect	Toxic	Non-Toxic	99%	–	–
CN(C)c1ccc(C2C(Cl)C(=O)N2C2=C(Cl)C(=O)c3ccccc3C2=O)cc1 (centres undefined)	300 mg/kg	Dose-Dependent Effect	–	–	–	Non-Toxic	99%
